The values that follow are results of earlier work, collected in the CATMoS acute toxicity set (Mansouri et al. 2021).

Structures are written as SMILES. “And” between values parts separate entries of the source, which are not always exact repeats. Equal values may be shown once. Where a SMILES comes first, the peptide text is derived from it. Bridges are numbered along the chain shown (N, C = ends). [ ]: non-standard residue; d: D form. The star is where a group is joined. Octanoyl(6-Me) = CCC(C)CCCCC(=O)*; Dab = NCC[CH](N)C(=O)O

A short description of this series: rat acute oral toxicity. To be noted: in vivo.
On to `NCCCCCCNCCCCCCN`, for which the LD50 is 450 mg/kg. Turning to `Nc1ccc([N+](=O)[O-])c(Cl)n1`, the LD50 is 1780 mg/kg. For `CN(C)C(=O)N(C)N=O`, the LD50 is 240 mg/kg. As to `O=C(Nc1ccc(Cl)cc1)c1cc(Cl)cc(-c2ccc(Cl)cc2)c1O`, the LD50 was 2810 mg/kg. For `OC(CCCN1CCCCC1)(c1ccccc1)c1ccccc1`, the LD50 was 515 mg/kg.

`CCCCN(CCCC)N=O`: the LD50 was 1200 mg/kg. On to `CCCCC(CC)CO[Si](O)(O)O` (stereo not drawn), for which the LD50 was 19700 mg/kg. Take `C=CCOC(=O)Cc1ccccc1`: the LD50 is 650 mg/kg.

`CN1CC(O)N(c2nnc(C(C)(C)C)s2)C1=O` (stereo not drawn): the LD50 was 1540 mg/kg.

Turning to `NC(=S)Nc1cccc(Cl)c1`, the median lethal dose (LD50) is 25 mg/kg. For `O=C1c2ccccc2C(=O)C1c1ccc(Cl)cc1`, the LD50 is 290 mg/kg. Regarding `CC(C)N1CCCC1=O`, the LD50 was 2900 mg/kg. Take `O=S(=O)(O)Oc1ccc(C(c2ccc(OS(=O)(=O)O)cc2)c2ccccn2)cc1`: the LD50 is 11300 mg/kg.

Turning to `CC(Oc1ccc(Oc2ncc(Cl)cc2Cl)cc1)C(=O)N1CCCO1` (stereo not drawn), the LD50 was 500 mg/kg. For `CSC(C)(C)C=NOC(=O)N(C)SN(C)Cc1ccccc1`, the LD50 is 9.4 mg/kg. For the compound `C=CC=NNc1ccccc1`, the LD50 was 700 mg/kg. For the compound `CN(SSC(C)(C)C)C(=O)ON=C1SCCS1`, the LD50 is 5.6 mg/kg. Take `O=C(NCC1CCCCN1)c1cc(OCC(F)(F)F)ccc1OCC(F)(F)F` (stereo not drawn): the LD50 is 1350 mg/kg. `CN1CCN(C(=O)N/N=C/c2ccc([N+](=O)[O-])o2)CC1`: the LD50 was 750 mg/kg. As to `CC(C)OC(=O)c1cncc(C(=O)OC(C)C)c1`, the LD50 is 5230 mg/kg. Consider `CN(C)C(=O)C(CC[N@+]1([O-])CC[C@@](O)(c2ccc(Cl)cc2)CC1)(c1ccccc1)c1ccccc1`, for which the LD50 is 172 mg/kg. Regarding `COc1ccc(NC(=O)N(C)C)cc1Cl`, the LD50 is 1600 mg/kg. Regarding `COS(=O)(=O)c1ccccc1`, the LD50 was 740 mg/kg. In the case of `NS(=O)(=O)c1cc2c(cc1Cl)NC(CC1CCCC1)NS2(=O)=O` (stereo not drawn), the LD50 was 1000 mg/kg. As for `O=C(O)c1snc(Cl)c1Cl`, the LD50 is 1200 mg/kg. Regarding `CCOc1cc(C(C)(C)C)ccc1C1COC(c2c(F)cccc2F)=N1` (stereo not drawn), the LD50 was 4270 mg/kg. As for `CO[C@H]1C=CC2=CCN3CCC4=C(CC(=O)OC4)[C@]23C1`, the LD50 is 510 mg/kg. For the compound `O=C1NCC2(CCN(CCc3ccccc3)CC2)O1`, the LD50 is 980 mg/kg and 437 mg/kg. As to `Cn1c2c(c3ccc(N)cc31)CCCC2`, the LD50 is 705 mg/kg. For `Cc1nc(N)sc1C(=O)Nc1ccccc1`, the LD50 is 1410 mg/kg. `O[C@@H]([C@H](O)[C@H](O)CBr)[C@H](O)CBr`: the LD50 was 1500 mg/kg.

Regarding `CC(=O)OCN(C)N=O`, the LD50 was 130 mg/kg. For the compound `CCCCC1C(=O)NN(c2ccccc2)C1=O` (stereo not drawn), the LD50 is 1750 mg/kg. For `CN1CCN(C2=Cc3ccccc3Oc3ccc(F)cc32)CC1`, the LD50 was 646 mg/kg.

For `CC(c1ccccc1)c1ccccc1CCl` (stereo not drawn), the LD50 was 4700 mg/kg.

For `S=c1[nH]cnc2[nH]cnc12`, the 50% lethal dose (LD50) was 277 mg/kg. For `CC(C(=O)O)c1ccc(-c2ccccc2)c(F)c1` (stereo not drawn), the LD50 was 117 mg/kg. Regarding `Clc1ccc(SCOC(Cn2ccnc2)c2ccc(Cl)cc2Cl)cc1` (stereo not drawn), the LD50 is 3850 mg/kg. On to `Cc1ccc(C)[nH]1`, for which the LD50 is 59 mg/kg.

For `N#Cc1ccc(N)cc1`, the LD50 is 283 mg/kg. As to `O=S(=O)(O)c1ccccc1C=Cc1ccc(-c2ccc(C=Cc3ccccc3S(=O)(=O)O)cc2)cc1`, the LD50 is 5580 mg/kg. On to `N#CCCCCC#N`, for which the LD50 was 155 mg/kg. Turning to `Cc1ncc(CSSCc2cnc(C)c(O)c2CCl)c(CCl)c1O`, the LD50 was 4300 mg/kg. `CNC(=O)Oc1cccc2c1OCCO2`: the LD50 is 126 mg/kg.

Take `COc1ccc(/C=C/C(=O)Nc2ccccc2C(=O)O)cc1OC`: the LD50 is 1100 mg/kg. Turning to `CC(C)CCON=O`, the LD50 is 505 mg/kg. For `C[N+](C)(C)CCI`, the LD50 was 700 mg/kg. Turning to `N#CC1CCCCC1`, the LD50 is 80 mg/kg. Take `CCC(=O)O[C@]1(c2ccccc2)CCN(C)C[C@@H]1C`: the LD50 is 90 mg/kg. For the compound `COc1cc(C(=O)N2CCOCC2)cc(OC)c1OC`, the LD50 is 1800 mg/kg. In the case of `Cc1ccc(OC(=O)c2ccccc2)cc1`, the LD50 is 2640 mg/kg.

Regarding `Cc1cnc(C)cn1`, the LD50 is 1020 mg/kg. `C[N+](C)(C)CCBr`: the LD50 was 190 mg/kg. With `CC/C(=C(/CC)c1ccc(OP(=O)(O)O)cc1)c1ccc(OP(=O)(O)O)cc1`, the LD50 is 3000 mg/kg.

On to `CCOC(C)C#N` (stereo not drawn), for which the LD50 was 2860 mg/kg. Regarding `O=C(O)C(F)(F)C(F)(F)C(F)(F)C(F)(F)C(F)(F)C(F)(F)C(F)(F)C(F)(F)C(F)(F)C(F)F`, the LD50 is 518 mg/kg.

`c1ccc2c(c1)ncc1ncsc12`: the LD50 is 350 mg/kg and 290 mg/kg. Take `CC(C)(C)NCCO`: the 50% lethal dose (LD50) was 1620 mg/kg. For `CN(C)C1CSSC1`, the LD50 was 420 mg/kg. Turning to `COc1ccc(C=CC(=O)O)cc1O`, the LD50 is 7900 mg/kg.

Turning to `CCC(C)CCCCC(=O)NC(CCN)C(=O)NC(C(=O)NC(CCN)C(=O)NC1CCNC(=O)C(C(C)O)NC(=O)C(CCN)NC(=O)C(CCN)NC(=O)C(C(C)O)NC(=O)C(CC(C)C)NC(=O)C(CCN)NC1=O)C(C)O` (stereo not drawn) ({Octanoyl(6-Me)}-[Dab]T[Dab][Dab][Dab]LT[Dab][Dab]T; lactam 4-C; configuration not given here), the LD50 is 910 mg/kg. In the case of `COP(=O)(OC)OC=C(Br)Br`, the LD50 is 253 mg/kg.

With `CCCc1ccccc1O`, the LD50 was 500 mg/kg.

As for `CCCCCCCCCCOc1c(OC)cc(C(N)=O)cc1OC`, the LD50 was 1650 mg/kg. Take `NC(=O)C1c2ccccc2C=Cc2ccccc21`: the LD50 was 1800 mg/kg. For `Cc1cccc(C)c1NC(=O)CN1CCCC1=O`, the LD50 is 1180 mg/kg. As for `C=CCOCC(CC)(CO)COCC=C`, the LD50 is 6500 mg/kg. For the compound `C=COC(=O)c1ccccc1`, the 50% lethal dose (LD50) is 3250 mg/kg. On to `CC(C)(C)C(=O)C(Cl)Cl`, for which the LD50 was 1300 mg/kg. `Nc1c(S(=O)(=O)O)cc(Nc2ccc(S(=O)(=O)O)c(Nc3nc(Cl)nc(Cl)n3)c2)c2c1C(=O)c1ccccc1C2=O`: the LD50 was 8980 mg/kg. For `CCCCOC(=O)C1CC1OCCCC` (stereo not drawn), the LD50 was 24 mg/kg. Consider `C=CCNP(=O)(OC=C(Cl)Cl)OCCCl` (stereo not drawn), for which the LD50 is 25 mg/kg. Regarding `NNC(=O)CCCCCCCCC(=O)NN`, the LD50 was 2500 mg/kg. As to `O=[N+]([O-])c1c(Cl)c(Cl)c(Cl)c2nc(C(F)(F)F)[nH]c12`, the LD50 was 19.3 mg/kg.

In the case of `CC(C)Cc1ccc(CC(=O)O)cc1`, the LD50 was 2300 mg/kg. Consider `CC(=O)NNC(=O)c1ccccn1`, for which the LD50 was 673 mg/kg. For the compound `CC(C)(C)CC1(C)CO1` (stereo not drawn), the LD50 is 4920 mg/kg.

As for `CCS(=O)CSP(=S)(OC(C)C)OC(C)C` (stereo not drawn), the LD50 is 25 mg/kg. On to `C=CCN(CC=C)C(=O)CSP(=S)(OCC)OCC`, for which the LD50 is 48 mg/kg.

For `CCC(=O)OCCc1ccccc1`, the LD50 is 4000 mg/kg. Take `C=COC(=O)C=CC`: the LD50 is 6500 mg/kg.

In the case of `CN1CCN(C2=Cc3ccccc3Oc3ccc(Cl)cc32)CC1`, the LD50 is 231 mg/kg. With `CN(C)c1ccc(C(O)(c2ccc(N(C)C)cc2)c2ccc(N(C)C)cc2)cc1`, the LD50 is 770 mg/kg. `CCCCCCCCCCCCOC(CBr)c1ccc(C(C)C)cc1` (stereo not drawn): the LD50 is 250 mg/kg.

With `CC1=COC(C)(C=O)CC1` (stereo not drawn), the LD50 was 2460 mg/kg.

With `CSc1nc(-c2ccc(Cl)cc2)n(-c2ccc(Cl)cc2)n1`, the LD50 was 770 mg/kg.

As for `OC(CNCCNCC(O)COc1ccccc1)COc1ccccc1` (stereo not drawn), the LD50 is 2920 mg/kg. Regarding `O=C(O)c1ccccc1Nc1cccc(Cl)c1CO`, the LD50 was 2400 mg/kg. For `O=C1CCCCCCCCCCCN1`, the LD50 was 2330 mg/kg. On to `CCCCC(C)(C)O[Si](OC(C)(C)CCCC)(OC(C)(C)CCCC)OC(C)(C)CCCC`, for which the LD50 was 60300 mg/kg. With `Cc1cccc(C(=O)Cl)c1`, the LD50 was 3440 mg/kg. For the compound `Nc1nc2ccccc2o1`, the LD50 was 600 mg/kg. Regarding `Cc1cccc(N)n1`, the LD50 was 100 mg/kg. In the case of `COP(=S)(OC)SCSc1cc(Cl)cc(Cl)c1`, the LD50 was 443 mg/kg. Take `CN(C/C=C/C#CC(C)(C)C)Cc1cccc2ccccc12`: the LD50 was 4000 mg/kg.

Take `O=C1CCC(=O)N1`: the LD50 was 14000 mg/kg.

Consider `Nc1ncnc2c1ccn2C1OC(CO)C(O)C1O` (stereo not drawn), for which the LD50 was 16 mg/kg. Turning to `CC(C(=O)O)c1ccc(Oc2nccs2)cc1` (stereo not drawn), the LD50 was 135 mg/kg. `CCCc1nc(C)cc(OC(=O)N(C)C)n1`: the LD50 is 200 mg/kg. Turning to `O=C(O)c1cc(Cl)cc([N+](=O)[O-])c1Cl`, the LD50 was 2640 mg/kg and 3500 mg/kg. As to `CC(=O)Oc1ccc(-c2ccc(F)cc2)cc1C(=O)O`, the LD50 was 185 mg/kg.

With `O=C1c2ccccc2-c2c([N+](=O)[O-])cc3c4cc([N+](=O)[O-])c5c6c(ccc(c7ccc1c2c73)c64)C(=O)c1ccccc1-5`, the LD50 was 10000 mg/kg. As for `Clc1ccc(C(Cn2ccnc2)OCc2ccsc2Cl)c(Cl)c1` (stereo not drawn), the LD50 was 770 mg/kg. With `C=CC(CCC(=O)O)OC(C)=O` (stereo not drawn), the LD50 was 543 mg/kg. With `CCc1ccc2nc(C(F)(F)F)[nH]c2c1`, the LD50 is 28 mg/kg. As to `NC(N)=[Se]`, the 50% lethal dose (LD50) is 50 mg/kg. On to `O=[N+]([O-])c1cc2c(ccc3ccccc32)o1`, for which the LD50 was 439 mg/kg. For `CC(N)CC(C)(C)N` (stereo not drawn), the LD50 was 431 mg/kg. With `CN(C)C(CSC#N)CSC#N`, the LD50 is 125 mg/kg and 82 mg/kg. Turning to `CNC(=O)Oc1ccccc1C1SCCS1`, the LD50 was 90 mg/kg. On to `O=C1C(CCSc2ccccc2)C(=O)N(c2ccccc2)N1c1ccccc1`, for which the LD50 is 450 mg/kg. Take `CNC(=O)Oc1ccc(SC)c(C)c1`: the LD50 was 50 mg/kg. In the case of `O=C(Cc1ccc(-c2ccccc2)cc1)Nc1ccccn1`, the LD50 is 1860 mg/kg. Regarding `CCOC(C1=NCCCCN1)c1ccc(Cl)cc1` (stereo not drawn), the LD50 was 370 mg/kg.

As to `O=C(c1ccc(Cl)cc1)c1ccccc1-c1ncc[nH]1`, the LD50 was 600 mg/kg. As for `CN(C)C(=O)Oc1c(Cl)c(Cl)cc2[nH]c(C(F)(F)F)nc12`, the LD50 is 41 mg/kg. In the case of `COP(=S)(OC)SC1CCC2C=CCC1S2` (stereo not drawn), the median lethal dose (LD50) is 1000 mg/kg. Consider `O=[N+]([O-])CCCO`, for which the LD50 was 77 mg/kg. In the case of `CCOC(C1=NCCCN1)c1cccc(F)c1` (stereo not drawn), the LD50 was 1000 mg/kg. As for `CN(CC(=O)N1CCOCC1)Cc1c(Cl)cccc1NC(=O)c1ccccc1`, the LD50 was 4200 mg/kg. As to `CC(C)NCC(O)c1cc(O)cc(O)c1` (stereo not drawn), the LD50 is 3370 mg/kg. For `CN(C)CCCN1c2ccccc2C(C)(C)c2ccccc21`, the LD50 was 1670 mg/kg and 1850 mg/kg. In the case of `CC(=O)N(CCN(C(C)=O)C(C)=O)C(C)=O`, the LD50 was 7940 mg/kg.
